The values below are quoted from earlier work in patent publication US20070042040A1, “Methods and compositions using gonadotropin hormone releasing hormone” (priority 2003, published 2007).

The conditions of the data set: mouse models.

For the compound `C[C@]12CC[C@H]3[C@@H](CCC4=C[C@H](O)CC[C@@H]43)[C@@H]1CC[C@@H]2O` [(3α,17β)-estr-4-ene-3,17-diol], the “effect on bone loss” value is listed as “reverse bone loss”.
